This series can be described thus: recombinant barcode read abundance after kanamycin selection (control-corrected) (log10(CPM+1)); higher = more efficient recombination; sequences stand for … in AGTGCAGAGAAAATCGGCCAGTTTTCTCTGCCTGCAGTCCGCATGCCGT…AGATTTATGCAGCGGACTGCCTTTCTCCCAAAGTGATAAACCGGACAGTATCATGGACCGGTTTTCCCGGTAATCCGTATTTGCAAGGTTGGTTTCACT; site = the 11-nt target. The method, boiled down: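 A promoter, a target, a barcode and the first 104 bridge RNA bases under J23119 made up each oligo. Oligos were Gibson-cloned into a vector bearing the other 73 bp and a T7-inducible recombinase, then co-electroporated into E. coli with a donor plasmid and plated in duplicate on chloramphenicol/ampicillin LB agar (control) or chloramphenicol/ampicillin/kanamycin with 0.1 mM IPTG. Recombination efficiency is the averaged, control-corrected counts per million of recombinant-junction barcodes. Reported values are log10(CPM+1).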
Consider “CTCTCATCTTGGGTTCTAACCTGTTGCTT (site CTCTCATCTAA)”, for which the “recombinant barcode read abundance (log10)” value was 0.0308.

Turning to “CTCTCATCTTGGGTTCTAACCTGTTGCTT (site CTCTCATCTAG)”, the “recombinant barcode read abundance (log10)” value turned out to be 0.232.

On to “CTCTCGCCTTGGGTTCTAACCTGTTGCCT (site CTATCGCCTAG)”, for which the “recombinant barcode read abundance (log10)” value worked out at 0.

Consider “CTCTCGCCTTGGGTTCTAACCTGTTGCCT (site CTCTCGCCTAG)”, for which the “recombinant barcode read abundance (log10)” value amounted to 0.168.

As to “CTCTCGCCTTGGGTTCTAACCTGTTGCCT (site CTGTCGCCTAG)”, the “recombinant barcode read abundance (log10)” value was found to be 0.0587.

For the sequence “CTCTCGCCTTGGGTTCTAACCTGTTGCCT (site CTTTCGCCTAG)”, the “recombinant barcode read abundance (log10)” value stood at 0.0266.

Turning to “CTCTCGGCTTGGGTTCTAACCTGTTGCCT (site CTCTAGGCTAG)”, the “recombinant barcode read abundance (log10)” value was found to be 0.494.

Consider “CTCTCGGCTTGGGTTCTAACCTGTTGCCT (site CTCTCGGCTAG)”, for which the “recombinant barcode read abundance (log10)” value came out at 0.865.

As to “CTCTCGGCTTGGGTTCTAACCTGTTGCCT (site CTCTGGGCTAG)”, the “recombinant barcode read abundance (log10)” value was 0.138.

Take “CTCTCGGCTTGGGTTCTAACCTGTTGCCT (site CTCTTGGCTAG)”: the “recombinant barcode read abundance (log10)” value came out at 0.0157.

“CTCTGCTCTTGGGTTCTAACCTGTTGCTC (site CTCTGCTCTGA)”: the “recombinant barcode read abundance (log10)” value is 0.724.

With “CTCTGCTCTTGGGTTCTAACCTGTTGCTC (site GCTGAGGCTTG)”, the “recombinant barcode read abundance (log10)” value was found to be 0.

As for “CTCTGTCCTTGGGTTCTAACCTGTTGCTA (site CTCTGTCCTTA)”, the “recombinant barcode read abundance (log10)” value amounted to 0.346.

As to “CTCTGTCCTTGGGTTCTAACCTGTTGCTA (site CTCTGTCCTTG)”, the “recombinant barcode read abundance (log10)” value stood at 0.0487.

“CTCTTAACTTGGGTTCTAACCTGTTGCTA (site CTCTTAACTTA)”: the “recombinant barcode read abundance (log10)” value was determined as 0.128.

In the case of “CTCTTAACTTGGGTTCTAACCTGTTGCTA (site CTCTTAGCTTT)”, the “recombinant barcode read abundance (log10)” value was found to be 0.134.

Consider “CTCTTGACTTGGGTTCTAACCTGTTGCTT (site CTCTGGACTAA)”, for which the “recombinant barcode read abundance (log10)” value was found to be 0.0764.

As to “CTCTTGACTTGGGTTCTAACCTGTTGCTT (site CTCTTGACTAA)”, the “recombinant barcode read abundance (log10)” value was 0.871.

As to “CTGAGCCCTTGGGTTCTAACCTGTTGCCG (site CTAAGCCCTCC)”, the “recombinant barcode read abundance (log10)” value stood at 0.239.

For “CTGAGCCCTTGGGTTCTAACCTGTTGCCG (site CTGAGCCCTCG)”, the “recombinant barcode read abundance (log10)” value amounted to 1.08.

As to “CTGAGGCCTTGGGTTCTAACCTGTTGCCT (site ATGAGGCCTAG)”, the “recombinant barcode read abundance (log10)” value came out at 0.226.

Take “CTGAGGCCTTGGGTTCTAACCTGTTGCCT (site CTGAGGCCTAG)”: the “recombinant barcode read abundance (log10)” value came out at 0.497.

As for “CTGAGGCCTTGGGTTCTAACCTGTTGCCT (site GTGAGGCCTAG)”, the “recombinant barcode read abundance (log10)” value was 0.11.

For “CTGAGGCCTTGGGTTCTAACCTGTTGCCT (site TTGAGGCCTAG)”, the “recombinant barcode read abundance (log10)” value was 0.299.

Regarding “CTGATAACTTGGGTTCTAACCTGTTGCCT (site CTGATAACTAG)”, the “recombinant barcode read abundance (log10)” value was found to be 1.02.

Turning to “CTGATAACTTGGGTTCTAACCTGTTGCCT (site CTGATCACTAG)”, the “recombinant barcode read abundance (log10)” value was 0.279.

For the sequence “CTGATAACTTGGGTTCTAACCTGTTGCCT (site CTGATGACTAG)”, the “recombinant barcode read abundance (log10)” value turned out to be 0.0814.

On to “CTGATAACTTGGGTTCTAACCTGTTGCCT (site CTGATTACTAG)”, for which the “recombinant barcode read abundance (log10)” value came to 0.136.

“CTGCCCGCTTGGGTTCTAACCTGTTGCCT (site CTGCCCGCTAG)”: the “recombinant barcode read abundance (log10)” value amounted to 0.667.

Regarding “CTGCCCGCTTGGGTTCTAACCTGTTGCCT (site GTGCTCGCTAG)”, the “recombinant barcode read abundance (log10)” value turned out to be 0.366.

Turning to “CTGCCCTCTTGGGTTCTAACCTGTTGCCT (site CAGCCCTCTAG)”, the “recombinant barcode read abundance (log10)” value stood at 0.932.

For the sequence “CTGCCCTCTTGGGTTCTAACCTGTTGCCT (site CCGCCCTCTAG)”, the “recombinant barcode read abundance (log10)” value turned out to be 0.179.

With “CTGCCCTCTTGGGTTCTAACCTGTTGCCT (site CGGCCCTCTAG)”, the “recombinant barcode read abundance (log10)” value turned out to be 0.0113.

In the case of “CTGCCCTCTTGGGTTCTAACCTGTTGCCT (site CTGCCCTCTAG)”, the “recombinant barcode read abundance (log10)” value was found to be 1.74.

Turning to “CTGCGCTCTTGGGTTCTAACCTGTTGCAT (site CTGCGCTCTAT)”, the “recombinant barcode read abundance (log10)” value is 1.22.

With “CTGCGCTCTTGGGTTCTAACCTGTTGCAT (site TGTGAGCCTTC)”, the “recombinant barcode read abundance (log10)” value stood at 0.0268.

Consider “CTGCGGTCTTGGGTTCTAACCTGTTGCAT (site ATGCGGTCTAG)”, for which the “recombinant barcode read abundance (log10)” value is 0.138.

Take “CTGCGGTCTTGGGTTCTAACCTGTTGCAT (site CTGCGGTCTAT)”: the “recombinant barcode read abundance (log10)” value is 1.7.

For “CTGCGTACTTGGGTTCTAACCTGTTGCCG (site CTGCGTACTCG)”, the “recombinant barcode read abundance (log10)” value was determined as 0.365.

Turning to “CTGCGTACTTGGGTTCTAACCTGTTGCCG (site TCCAAGGCTTA)”, the “recombinant barcode read abundance (log10)” value turned out to be 0.0663.

“CTGCGTCCTTGGGTTCTAACCTGTTGCCT (site CTCCGTCCTAG)”: the “recombinant barcode read abundance (log10)” value came to 0.121.

For “CTGCGTCCTTGGGTTCTAACCTGTTGCCT (site CTGCGTCCTAG)”, the “recombinant barcode read abundance (log10)” value came out at 0.671.

In the case of “CTGGAAACTTGGGTTCTAACCTGTTGCCT (site CGGGTAACTAG)”, the “recombinant barcode read abundance (log10)” value was determined as 0.0164.

Consider “CTGGAAACTTGGGTTCTAACCTGTTGCCT (site CTGGAAACTAG)”, for which the “recombinant barcode read abundance (log10)” value is 1.23.

“CTGGACACTTGGGTTCTAACCTGTTGCCT (site CTAGACACTAG)”: the “recombinant barcode read abundance (log10)” value was determined as 1.94.

Take “CTGGACACTTGGGTTCTAACCTGTTGCCT (site CTCGACACTAG)”: the “recombinant barcode read abundance (log10)” value worked out at 0.0566.

For the sequence “CTGGACACTTGGGTTCTAACCTGTTGCCT (site CTGGACACTAG)”, the “recombinant barcode read abundance (log10)” value was 1.83.

With “CTGGACACTTGGGTTCTAACCTGTTGCCT (site CTTGACACTAG)”, the “recombinant barcode read abundance (log10)” value was determined as 0.329.

As for “CTGGGCACTTGGGTTCTAACCTGTTGCCT (site CGGGGCACTAG)”, the “recombinant barcode read abundance (log10)” value stood at 0.164.

For the sequence “CTGGGCACTTGGGTTCTAACCTGTTGCCT (site CTGGGCACTAG)”, the “recombinant barcode read abundance (log10)” value is 0.395.

Consider “CTGGGCCCTTGGGTTCTAACCTGTTGCCT (site CTGAGCCCTAG)”, for which the “recombinant barcode read abundance (log10)” value amounted to 0.12.

“CTGGGCCCTTGGGTTCTAACCTGTTGCCT (site CTGCGCCCTAG)”: the “recombinant barcode read abundance (log10)” value came out at 0.0544.

“CTGGGCCCTTGGGTTCTAACCTGTTGCCT (site CTGGGCCCTAG)”: the “recombinant barcode read abundance (log10)” value came out at 0.277.

In the case of “CTGGGCCCTTGGGTTCTAACCTGTTGCCT (site CTGTGCCCTAG)”, the “recombinant barcode read abundance (log10)” value came to 0.214.

For “CTGGGTCCTTGGGTTCTAACCTGTTGCTT (site CTGGGTCCTAA)”, the “recombinant barcode read abundance (log10)” value stood at 1.48.

Consider “CTGGGTCCTTGGGTTCTAACCTGTTGCTT (site CTTGGTTCTAA)”, for which the “recombinant barcode read abundance (log10)” value worked out at 0.179.

On to “CTGGTTCCTTGGGTTCTAACCTGTTGCCT (site CTGGCTCCTAA)”, for which the “recombinant barcode read abundance (log10)” value was 0.874.

Consider “CTGGTTCCTTGGGTTCTAACCTGTTGCCT (site CTGGTTCCTAG)”, for which the “recombinant barcode read abundance (log10)” value is 1.2.

Turning to “CTGTTGTCTTGGGTTCTAACCTGTTGCCA (site CTGATGTCTTG)”, the “recombinant barcode read abundance (log10)” value came out at 0.204.

In the case of “CTGTTGTCTTGGGTTCTAACCTGTTGCCA (site CTGCTGTCTTG)”, the “recombinant barcode read abundance (log10)” value is 0.00714.

Turning to “CTGTTGTCTTGGGTTCTAACCTGTTGCCA (site CTGGTGTCTTG)”, the “recombinant barcode read abundance (log10)” value was 0.0643.

As for “CTGTTGTCTTGGGTTCTAACCTGTTGCCA (site CTGTTGTCTTG)”, the “recombinant barcode read abundance (log10)” value amounted to 0.487.

Take “CTTACAGCTTGGGTTCTAACCTGTTGCCT (site CTTACAGCTAG)”: the “recombinant barcode read abundance (log10)” value worked out at 0.644.

For “CTTACAGCTTGGGTTCTAACCTGTTGCCT (site CTTACCGCTAG)”, the “recombinant barcode read abundance (log10)” value stood at 0.138.

As for “CTTACAGCTTGGGTTCTAACCTGTTGCCT (site CTTACGGCTAG)”, the “recombinant barcode read abundance (log10)” value amounted to 0.0141.

“CTTACAGCTTGGGTTCTAACCTGTTGCCT (site CTTACTGCTAG)”: the “recombinant barcode read abundance (log10)” value came to 0.147.

For “CTTAGGACTTGGGTTCTAACCTGTTGCCA (site CTTAGGACTAG)”, the “recombinant barcode read abundance (log10)” value turned out to be 0.257.

On to “CTTAGGACTTGGGTTCTAACCTGTTGCCA (site CTTAGGACTCG)”, for which the “recombinant barcode read abundance (log10)” value worked out at 0.0285.

Regarding “CTTAGGACTTGGGTTCTAACCTGTTGCCA (site CTTAGGACTGG)”, the “recombinant barcode read abundance (log10)” value was determined as 0.0906.

For “CTTAGGACTTGGGTTCTAACCTGTTGCCA (site CTTAGGACTTG)”, the “recombinant barcode read abundance (log10)” value came to 0.265.

Consider “CTTAGGACTTGGGTTCTAACCTGTTGCCG (site CTTAGGACTAG)”, for which the “recombinant barcode read abundance (log10)” value came to 0.235.

As for “CTTAGGACTTGGGTTCTAACCTGTTGCCG (site CTTAGGACTCG)”, the “recombinant barcode read abundance (log10)” value is 0.577.

For the sequence “CTTAGGACTTGGGTTCTAACCTGTTGCCG (site CTTAGGACTGG)”, the “recombinant barcode read abundance (log10)” value was found to be 0.155.

“CTTAGGACTTGGGTTCTAACCTGTTGCCG (site CTTAGGACTTG)”: the “recombinant barcode read abundance (log10)” value is 0.199.

“CTTAGTACTTGGGTTCTAACCTGTTGCAT (site CTTAGTACTAT)”: the “recombinant barcode read abundance (log10)” value was 0.246.

For “CTTAGTACTTGGGTTCTAACCTGTTGCAT (site GACGTGCCTCG)”, the “recombinant barcode read abundance (log10)” value came out at 0.432.

As for “CTTCAATCTTGGGTTCTAACCTGTTGCCT (site CTTAAATCTAG)”, the “recombinant barcode read abundance (log10)” value was 0.146.

Values taken from the supplement of paper PMC11208160.
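Note: IS621 recombinase and bridge RNA in Escherichia coli cells.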
